PubChem BioAssay AID330 (DTP/NCI, 2004)
Where “and” joins values, the source holds several entries; their conditions need not be identical. Equal entries are not always repeated. Toxic doses and inconclusive results are not listed.

Tested on: P388 leukemia ip, CD2F1 mice, survival T/C
Assay: NCI In Vivo Anticancer Drug Screen. Data for tumor model P388 Leukemia (intraperitoneal) in CD2F1 (CDF1) mice
Settings: higher = longer survival
Procedure, shortened: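 Mice carrying the transplanted tumor received test compound or vehicle. Survival was recorded in each group, and the value is the treated-group measurement divided by that of the vehicle-treated control group.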

[1] = endpoint: median survival time, dose: 60.0 mg/kg/injection, schedule: Q01DX005 (ip), vehicle: Klucel (hydroxypropylcellulose) (HPC)
[2] = endpoint: median survival time, dose: 120.0 mg/kg/injection, schedule: Q01DX005 (ip), vehicle: Klucel (hydroxypropylcellulose) (HPC)
[3] = endpoint: median survival time, dose: 240.0 mg/kg/injection, schedule: Q01DX005 (ip), vehicle: Klucel (hydroxypropylcellulose) (HPC)
[4] = endpoint: median survival time, dose: 100.0 mg/kg/injection, schedule: Q04DX003 (ip), vehicle: saline with Tween-80
[5] = endpoint: median survival time, dose: 200.0 mg/kg/injection, schedule: Q04DX003 (ip), vehicle: saline with Tween-80
[6] = endpoint: median survival time, dose: 50.0 mg/kg/injection, schedule: Q01DX009 (ip), vehicle: saline with Tween-80
[7] = endpoint: median survival time, dose: 50.0 mg/kg/injection, schedule: Q04DX003 (ip), vehicle: saline with Tween-80
[8] = endpoint: median survival time, dose: 60.0 mg/kg/injection, schedule: Q01DX005 (ip), vehicle: saline with Tween-80
[9] = endpoint: median survival time, dose: 100.0 mg/kg/injection, schedule: Q01DX009 (ip), vehicle: saline with Tween-80

`COc1ccn(C2CCCCO2)c(=O)n1` (configuration not stated) was tested, and the T/C (endpoint: median survival time, dose: 50.0 mg/kg/injection, schedule: Q01DX005 (ip), vehicle: saline) was 108 % of control, the T/C (endpoint: median survival time, dose: 100.0 mg/kg/injection, schedule: Q01DX005 (ip), vehicle: saline) was 108 % of control and the T/C (endpoint: median survival time, dose: 200.0 mg/kg/injection, schedule: Q01DX005 (ip), vehicle: saline) was 108 % of control.
In the case of `O=C1OC2C=CC=CN2C(=O)C1Cc1ccccc1` (configuration not stated), the T/C [1] is reported as 105 % of control, the T/C [2] is reported as 102 % of control and the T/C [3] is reported as 100 % of control.
`Nc1nc(N)c(N=O)c(Nc2ccc(Cl)c(Cl)c2)n1` was tested, and the T/C [4] was 100 % of control and the T/C [5] was 90 % of control.
For `CCOC(=O)C1(N)CCCC1`, the T/C (endpoint: median survival time, dose: 6.25 mg/kg/injection, schedule: Q01DX009 (ip), vehicle: saline) was 105 % of control and 86 % of control, the T/C (endpoint: median survival time, dose: 12.5 mg/kg/injection, schedule: Q01DX009 (ip), vehicle: saline) was 100 % of control and 102 % of control and the T/C (endpoint: median survival time, dose: 25.0 mg/kg/injection, schedule: Q01DX009 (ip), vehicle: saline) was 100 % of control and 96 % of control. The T/C (endpoint: median survival time, dose: 50.0 mg/kg/injection, schedule: Q01DX009 (ip), vehicle: saline) was 114 % of control and 96 % of control.
In the case of `COc1ccc(C2c3cc4c(cc3OC(O)C2C)OCO4)cc1` (configuration not stated), the T/C [1] is reported as 106 % of control, the T/C [2] is reported as 100 % of control and the T/C [3] is reported as 101 % of control.
`OCC(F)(F)C(F)(F)C(F)(F)CO` was tested, and the T/C (endpoint: median survival time, dose: 100.0 mg/kg/injection, schedule: Q04DX003 (ip), vehicle: saline) was 100 % of control, the T/C (endpoint: median survival time, dose: 200.0 mg/kg/injection, schedule: Q04DX003 (ip), vehicle: saline) was 100 % of control and the T/C (endpoint: median survival time, dose: 400.0 mg/kg/injection, schedule: Q04DX003 (ip), vehicle: saline) was 100 % of control.
In the case of `CCN(CC)CCN1c2ccccc2Sc2ccc3ccccc3c21`, the T/C (endpoint: median survival time, dose: 50.0 mg/kg/injection, schedule: Q01DX005 (ip), vehicle: saline + Tween-80 + alcohol) is reported as 107 % of control, the T/C (endpoint: median survival time, dose: 100.0 mg/kg/injection, schedule: Q01DX005 (ip), vehicle: saline + Tween-80 + alcohol) is reported as 105 % of control and the T/C (endpoint: median survival time, dose: 200.0 mg/kg/injection, schedule: Q01DX005 (ip), vehicle: saline + Tween-80 + alcohol) is reported as 102 % of control.
For `N#C/C(N)=C(/N)C#N`, the T/C (endpoint: median survival time, dose: 12.5 mg/kg/injection, schedule: Q01DX009 (ip), vehicle: saline with Tween-80) was 100 % of control and 107 % of control, the T/C (endpoint: median survival time, dose: 25.0 mg/kg/injection, schedule: Q01DX009 (ip), vehicle: saline with Tween-80) was 102 % of control and 111 % of control and the T/C [6] was 104 % of control and 117 % of control and 124 % of control.
In the case of `CN(C)c1ccc(/C=C/c2ccnc3ccccc23)cc1Cl`, the T/C (endpoint: median survival time, dose: 12.5 mg/kg/injection, schedule: Q04DX003 (ip), vehicle: saline with Tween-80) is reported as 105 % of control, the T/C (endpoint: median survival time, dose: 25.0 mg/kg/injection, schedule: Q04DX003 (ip), vehicle: saline with Tween-80) is reported as 96 % of control and the T/C [7] is reported as 95 % of control.
`CN(CC(N)=O)C(=O)N(CCCl)N=O` was tested, and the T/C (endpoint: median survival time, dose: 15.0 mg/kg/injection, schedule: Q01DX005 (ip), vehicle: saline with Tween-80) was 160 % of control, the T/C (endpoint: median survival time, dose: 30.0 mg/kg/injection, schedule: Q01DX005 (ip), vehicle: saline with Tween-80) was 201 % of control and the T/C [8] was 263 % of control.
For `BrC1(Br)C2CCCCCCC21` (configuration not stated), the T/C [6] was 100 % of control, the T/C [7] was 100 % of control and the T/C [9] was 100 % of control. For the same compound, the T/C [4] was 104 % of control, the T/C (endpoint: median survival time, dose: 200.0 mg/kg/injection, schedule: Q01DX009 (ip), vehicle: saline with Tween-80) was 100 % of control and the T/C [5] was 104 % of control.
For `C1=Cc2ccccc2/C1=C/c1cc2c3c(c1)CCCN3CCC2`, the T/C [1] was 95 % of control, the T/C [2] was 91 % of control and the T/C [3] was 92 % of control.
In the case of `COc1cccc2c1C(=O)c1c(O)c3c(c(O)c1C2=O)C[C@@](O)(/C(C)=N/NC(=O)c1ccc(-c2ccccc2)cc1)C[C@@H]3OC1CC(N)C(O)C(C)O1` (some centres not stated), the T/C (endpoint: median survival time, dose: 0.12 mg/kg/injection, schedule: Q01DX009 (ip), vehicle: water) is reported as 107 % of control, the T/C (endpoint: median survival time, dose: 0.5 mg/kg/injection, schedule: Q01DX009 (ip), vehicle: water) is reported as 151 % of control and the T/C (endpoint: median survival time, dose: 1.0 mg/kg/injection, schedule: Q01DX009 (ip), vehicle: water) is reported as 157 % of control. For the same compound, the T/C (endpoint: median survival time, dose: 2.0 mg/kg/injection, schedule: Q01DX009 (ip), vehicle: water) was 163 % of control and 169 % of control, the T/C (endpoint: median survival time, dose: 3.13 mg/kg/injection, schedule: Q01DX009 (ip), vehicle: water) was 192 % of control and the T/C (endpoint: median survival time, dose: 4.0 mg/kg/injection, schedule: Q01DX009 (ip), vehicle: water) was 190 % of control. For the same compound, the T/C (endpoint: median survival time, dose: 6.0 mg/kg/injection, schedule: Q04DX003 (ip), vehicle: water) was 106 % of control, the T/C (endpoint: median survival time, dose: 6.25 mg/kg/injection, schedule: Q01DX001 (ip), vehicle: water) was 151 % of control and the T/C (endpoint: median survival time, dose: 6.25 mg/kg/injection, schedule: Q01DX009 (ip), vehicle: water) was 109 % of control. For the same compound, the T/C (endpoint: median survival time, dose: 8.0 mg/kg/injection, schedule: Q01DX009 (ip), vehicle: water) was 98 % of control and 91 % of control, the T/C (endpoint: median survival time, dose: 12.5 mg/kg/injection, schedule: Q01DX001 (ip), vehicle: water) was 163 % of control and the T/C (endpoint: median survival time, dose: 24.0 mg/kg/injection, schedule: Q04DX003 (ip), vehicle: water) was 165 % of control. For the same compound, the T/C (endpoint: median survival time, dose: 25.0 mg/kg/injection, schedule: Q01DX001 (ip), vehicle: water) was 116 % of control and the T/C (endpoint: median survival time, dose: 96.0 mg/kg/injection, schedule: Q04DX003 (ip), vehicle: water) was 98 % of control.
For `O=C(Nc1cccc(Cl)c1)OCCCc1ccncc1`, the T/C [6] was 96 % of control and the T/C [9] was 96 % of control.
`C=C1N=NN(c2cccc(C(F)(F)F)c2)C1N1CCOCC1` (configuration not stated) was tested, and the T/C [8] was 99 % of control and the T/C (endpoint: median survival time, dose: 120.0 mg/kg/injection, schedule: Q01DX005 (ip), vehicle: saline with Tween-80) was 100 % of control.
`C=C1C[C@@]23CC[C@@H]4[C@](C)(CC[C@H](O)[C@]4(C)COC(=O)CCC(=O)O)[C@H]2CC[C@@H]1C3` was tested, and the T/C (endpoint: median survival time, dose: 50.0 mg/kg/injection, schedule: Q01DX005 (ip), vehicle: Klucel (hydroxypropylcellulose) (HPC)) was 101 % of control, the T/C (endpoint: median survival time, dose: 100.0 mg/kg/injection, schedule: Q01DX005 (ip), vehicle: Klucel (hydroxypropylcellulose) (HPC)) was 100 % of control and the T/C (endpoint: median survival time, dose: 200.0 mg/kg/injection, schedule: Q01DX005 (ip), vehicle: Klucel (hydroxypropylcellulose) (HPC)) was 99 % of control.
`NC1=C(O)C(=O)C(c2c[nH]c3ccc(OCc4ccccc4)cc23)O1` (configuration not stated) was tested, and the T/C (endpoint: median survival time, dose: 7.5 mg/kg/injection, schedule: Q01DX005 (ip), vehicle: Klucel (hydroxypropylcellulose) (HPC)) was 93 % of control, the T/C (endpoint: median survival time, dose: 15.0 mg/kg/injection, schedule: Q01DX005 (ip), vehicle: Klucel (hydroxypropylcellulose) (HPC)) was 101 % of control and the T/C (endpoint: median survival time, dose: 30.0 mg/kg/injection, schedule: Q01DX005 (ip), vehicle: Klucel (hydroxypropylcellulose) (HPC)) was 102 % of control and 96 % of control.
`O=C(CCCc1ccccc1)N1CCOCC1` was tested, and the T/C (endpoint: median survival time, dose: 50.0 mg/kg/injection, schedule: Q01DX001 (ip), vehicle: saline sonified) was 90 % of control, the T/C (endpoint: median survival time, dose: 100.0 mg/kg/injection, schedule: Q01DX001 (ip), vehicle: saline sonified) was 109 % of control and the T/C (endpoint: median survival time, dose: 200.0 mg/kg/injection, schedule: Q01DX001 (ip), vehicle: saline sonified) was 100 % of control.
`CC(C)(O)C1CCCCC1Cl` (configuration not stated) was tested, and the T/C (endpoint: median survival time, dose: 50.0 mg/kg/injection, schedule: Q01DX005 (ip), vehicle: saline with Tween-80) was 104 % of control, the T/C (endpoint: median survival time, dose: 100.0 mg/kg/injection, schedule: Q01DX005 (ip), vehicle: saline with Tween-80) was 107 % of control and the T/C (endpoint: median survival time, dose: 200.0 mg/kg/injection, schedule: Q01DX005 (ip), vehicle: saline with Tween-80) was 104 % of control.
`COc1c(O)ccc([N+](=O)[O-])c1OC` was tested, and the T/C (endpoint: median survival time, dose: 12.5 mg/kg/injection, schedule: Q01DX009 (ip), vehicle: other) was 96 % of control, the T/C (endpoint: median survival time, dose: 25.0 mg/kg/injection, schedule: Q01DX009 (ip), vehicle: other) was 98 % of control and the T/C (endpoint: median survival time, dose: 50.0 mg/kg/injection, schedule: Q01DX009 (ip), vehicle: other) was 105 % of control. For the same compound, the T/C (endpoint: median survival time, dose: 100.0 mg/kg/injection, schedule: Q01DX009 (ip), vehicle: other) was 102 % of control and the T/C (endpoint: median survival time, dose: 200.0 mg/kg/injection, schedule: Q01DX009 (ip), vehicle: other) was 97 % of control.
With `CCOC(=O)C1=C(C)/C(=C/c2[n-]c(C)c(C(=O)OCC)c2C)N=C1C.CCOC(=O)C1=C(C)/C(=C/c2[n-]c(C)c(C(=O)OCC)c2C)N=C1C.[Co+2]` the T/C (endpoint: mean survival time, dose: 12.5 mg/kg/injection, schedule: Q01DX001 (ip), vehicle: saline with Tween-80) was 95 % of control, the T/C (endpoint: mean survival time, dose: 25.0 mg/kg/injection, schedule: Q01DX001 (ip), vehicle: saline with Tween-80) was 92 % of control and the T/C (endpoint: mean survival time, dose: 50.0 mg/kg/injection, schedule: Q01DX001 (ip), vehicle: saline with Tween-80) was 90 % of control.
